Measured values taken from patent US20060051868A1, “Methods for increasing conifer somatic embryo initiation, capture, and multiplication” (priority 2001, published 2006).
Like-named read-outs stand apart in the source and are kept apart here.

Assays:
Assay type in all cases: cell-based
Loblolly pine initiates = assay: Percentage of Loblolly pine maintenance cultures with mass greater than 200 mg at eight weeks; details: control 33.7
Excerpt: “Initiates” will be used to refer to recently initiated embryogenic tissues still on the initiation media. In this experiment, initiates were transferred to a maintenance and multiplication media directly from the initiation media. Five treatments, consisting of various media or culture conditions were imposed on the these cultures. Treatment media were based on media #1191. (See Table 21.) Initiates derived from eight different cone collections of Loblolly pine were transferred to vials containing 5 ml solid media. Seventy five replications were prepared for each treatment.
The transferred initiates were grown in the various treatments for four weeks, and thereafter transferred to vials containing fresh media (of the same composition utilized during the previous four weeks). At the end of a second four-week period, cultures were carefully removed from the vials and weighed. The percentage of cultures that had attained a mass of 200 mg or more was calculated for each treatment.

[1] = tested on: Loblolly pine embryogenic cultures; assay: Growth of Loblolly pine embryogenic cultures from single somatic embryos (tissue diameter, area); details: base Media 1191, ABA 1.3 mg/l, standard atmosphere, five weeks
Experimental: Three previously initiated Loblolly pine embryogenic cultures, each representing a different genotype, were grown in liquid media #1133, used as starting material for embryogenic cultures on various treatment media. Using a dissecting scope, individual stage 2 somatic embryos were extracted and placed on treatment media in the center of individual wells on a well plate. Forty embryos were prepared per treatment media, per genotype. Well plates were wrapped in Parafilm® and cultured under standard conditions at room temperature in the dark for four weeks. Embryogenic cultures derived from the single isolated embryos proliferated and spread over the surface of the culture medium. Spreading cultures were roughly circular in shape, radiating from the central embryo. At the end of four weeks, the growth of each culture was measured by measuring colony diameter using a dissecting scope ocular micrometer. Five treatment media were compared to control media #1043 (Table 21). Three media consisted of #1043 supplemented with paclobutrazol at concentrations of 0.33, 1.0 and 3.0 ppm. A B-vitamin treatment contained biotin at 0.05 ppm and folic acid at 0.5 ppm. […] The pH of media containing four different concentrations of MES was compared to that of a non-buffered control media during eight weeks of embryogenic culture growth. Maintenance cultures were established on treatment media using single isolated somatic embryos. Maintenance cultures were prepared and cultured essentially as described in Example 5. The control media was #1043. (See Table 21). The treatment media consisted of #1043 supplemented with 250, 500, 1000 and 1500 mg/l MES. Media pH was adjusted to 5.7 within all treatments prior to autoclaving, pouring and solidification. Immediately after pouring the media, and thereafter at two week intervals, media pH was measured up to the eighth week of culture growth. At each sampling time, four cultures from each media-genotype treatment were destructively sampled to measure the pH of the media directly underlying the growing embryogenic tissue. This experiment measured the effects of ABA, vitamins, culturing in a closed container, and culturing at increased atmospheric pressure on the growth of embryogenic cultures. Maintenance cultures were prepared on well plates using single somatic embryos, essentially as described in Example 5.

[2] = tested on: Loblolly pine megagametophytes; assay: Initiation frequency of embryogenic cultures from Loblolly pine megagametophyte explants
Experimental: Explants were megagametophytes isolated from Loblolly pine summer cones when embryos were at approximately stage 2-4. Seeds were. collected from four individual trees of diverse genotypes. Extracted seeds were soaked in running water for 10 minutes, agitated in 10% liquinox supplemented with 1.1 ml/l of Tween 20 for 10 minutes, and rinsed with water for 30 minutes. Seeds were sterilized in a laminar flow hood by agitating in 20% hydrogen peroxide for 10 minutes and rinsing with sterile deionized water. The seed coat, integuments, and nucellus were removed to isolate the megagametophytes. Culturing was performed in 24-well multi-well culture plates with each well having an approximate volume of 3.0 ml. Two ml of media was poured into each well.
Each replication consisted of eight adjacent wells on a multi-well plate, with one megagametophyte per well, providing three replications per multi-well plate. Twelve replications (for a total of 96 explants) were performed per treatment for each cone collection. The well plates were wrapped in Parafilm®, elastic wrap to minimize evaporation and incubated at 22-24° C. under dark conditions for nine weeks. Initiation frequency was scored for each dish by counting the number of explants which had successfully initiated embryogenic cultures.
The media treatments consisted of: (1) a control media #1043 (see Table 21); (2) media #1218, comprising media #1043 supplemented with 250 mg/l MES buffer; (3) media #1043 supplemented with 0.5 ppm folic acid and 0.05 ppm biotin; and (4) media #1218 supplemented with 0.5 ppm folic acid and 0.05 ppm biotin.
A representative procedure is shown for Loblolly pine. Experimental procedure follow similarly for other conifer but differ slightly in the composition of media used. […] Here, however, each treatment-genotype test consisted of ten replications of ten explants.
The cultures were covered and incubated in the dark at 24-26° C. for nine weeks.
Explants from four Loblolly pine cone collections were prepared and cultured as described in Example 2. The media treatments consisted of control media, #1218, which is media #1043 supplemented. with 250 mg/l MES, and four treatment media, which consist of media #1218 supplemented with 0.33, 1.0, 2.0, and 3.0 ppm paclobutrazol, respectively.
Four cone collections with embryos at stages 2-4 were used. Eighty explants from each cone collection on each media were tested. Seeds were removed from cones and soaked in running water for 10 min. Seeds were then agitated in 10% liquinox containing 1.1 ml/l Tween 20 for 10 min., and then rinsed with running tap water for 30 min. After transferring to a sterile hood, seeds were agitated in 20% H2O2 for 10 min., rinsed with sterile nanopure® H2O five times for 5 to 10 min. intervals, and then placed into a sterile petri dish for dissection. Seeds were dissected by splitting the seed coat, removing the integuments and nucellus. The megagametophyte was placed onto the appropriate medium. Each multi-well test plate contained 2 ml of solid media. Plates were incubated in the dark for 8 weeks and then scored.
The control media, media #1253, is described in detail in Table 16. All test media, #1275, #1421, #1422, and #1423 were comprised of the control media with the addition of a gibberellin inhibitor.

conifer = assay: Inventors' observation of initiation frequency in conifer with gibberellins
[3] = base media #1253, 1.0 ppm paclobutrazol, 0.1062 ppm flurprimidol, 1.58 ppm chlormequat-Cl, 0.16 ppm succinic acid-dh, 8 weeks, dark, control 29.5
[4] = base media #1253, 1.0 ppm paclobutrazol, 0.1062 ppm flurprimidol, 1.58 ppm chlormequat-Cl, 0.16 ppm succinic acid-dh, 8 weeks, dark, control 58.6

CC1=CC(=O)CC(C)(C)[C@@]1(O)/C=C/C(C)=C\C(=O)O [ABA, abscisic acid]
% mass >200 mg (Loblolly pine initiates; Media 1191 + 1.3 mg/l ABA, cultured at 1.5 atm): 61.2%
% mass >200 mg (Loblolly pine initiates; base Media 1191, ABA 1.3 mg/l, brassinolide 0.1 μM + paclobutrazol 1.0 ppm, MES 250 mg/l, biotin 0.05 ppm, folic acid 0.5 ppm): 48.6%
Tissue diameter (mm) ([1]; control 4.11): 4.61 mm
Tissue area (mm^2) ([1]; control 13.3): 16.7 mm^2

C[N+](C)(C)CCCl [Chlormequat-Cl, chlormequat-Cl]
Initiation Frequency (%) [2, 3]: 36.8%
Extrusion (%) [2, 4]: 61.6%

CC(C)C(O)(c1ccc(OC(F)(F)F)cc1)c1cncnc1 (centres unmarked) [Flurprimidol, flurprimidol]
Extrusion (%) [2]: 59.9%
Initiation Frequency (%) [2]: 36.3%

CN(C)NC(=O)CCC(=O)O [Succinic Acid-DH, succinic acid-DH]
Initiation Frequency (%) [2, 3]: 38.0%
Extrusion (%) [2, 4]: 63.3%

C=C1C[C@]23C[C@@]1(O)CC[C@H]2[C@@]12C=C[C@H](O)[C@@](C)(C(=O)O1)[C@H]2[C@@H]3C(=O)O [gibberellic acid]
effect on initiation frequency in conifer (conifer): inhibitory effect
